{
  "source": "paper PMC12552596",
  "about": "(Nature Communications, 2025)",
  "target": "T1, human glucose-6-phosphate transporter (G6PT) (Homo sapiens, UniProt O43826, W138F)",
  "T1 sequence (O43826 1-429 W138F)": "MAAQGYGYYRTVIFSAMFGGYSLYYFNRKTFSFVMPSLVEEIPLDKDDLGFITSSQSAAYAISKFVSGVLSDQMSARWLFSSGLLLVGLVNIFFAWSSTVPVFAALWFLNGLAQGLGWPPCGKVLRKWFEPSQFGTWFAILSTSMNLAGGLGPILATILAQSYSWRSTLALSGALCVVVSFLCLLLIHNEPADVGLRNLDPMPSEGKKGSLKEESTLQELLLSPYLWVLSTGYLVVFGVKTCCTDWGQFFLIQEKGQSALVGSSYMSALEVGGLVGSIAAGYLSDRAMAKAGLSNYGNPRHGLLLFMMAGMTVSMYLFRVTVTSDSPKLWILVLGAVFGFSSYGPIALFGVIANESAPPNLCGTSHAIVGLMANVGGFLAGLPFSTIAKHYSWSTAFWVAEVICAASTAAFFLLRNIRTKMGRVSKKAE",
  "T1 sequence (P35575 1-357 partner)": "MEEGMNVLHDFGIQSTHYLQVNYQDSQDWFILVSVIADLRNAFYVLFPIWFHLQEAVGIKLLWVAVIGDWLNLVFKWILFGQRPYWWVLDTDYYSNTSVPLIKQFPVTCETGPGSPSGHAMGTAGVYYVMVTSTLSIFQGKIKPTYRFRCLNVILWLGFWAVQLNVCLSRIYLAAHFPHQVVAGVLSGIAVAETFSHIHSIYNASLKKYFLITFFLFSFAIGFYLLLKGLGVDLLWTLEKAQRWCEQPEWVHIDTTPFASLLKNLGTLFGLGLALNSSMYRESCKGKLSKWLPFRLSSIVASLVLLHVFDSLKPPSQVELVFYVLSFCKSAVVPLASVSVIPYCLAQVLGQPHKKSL",
  "type": "cell-based",
  "data": [
    {"smiles": "O=C(/C=C/c1ccc(O)c(O)c1)O[C@@H]1C[C@](O)(C(=O)O)C[C@@H](O)[C@H]1O", "note": "[CHA, chlorogenic acid]", "values": [
      {"measurement": "IC50", "result": "523 ± 210", "unit": "µM"}
    ]}
  ]
}
